Measurements reported in the supplement of paper PMC10307832.

Tests used:
Assay in all cases: relative viability (nuclei count vs DMSO), 5 days (fraction); higher = more cells survive
[1] = compound: O=C(C[C@H]1NCCC[C@@H]1O)Cn1cnc2cc(Br)c(Cl)cc2c1=O (racemic) [Halofuginone] + CS(=O)(=O)N1CCN(Cc2cc3nc(-c4cccc5[nH]ncc45)nc(N4CCOCC4)c3s2)CC1 [Pictilisib] (partner 1 µM)
In short: (§1)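 Lung cancer cell lines in 1536-well plates were dosed by pin tool the day after seeding, either with one drug alone or with a fixed anchor-drug dose plus five library-drug doses (not always all listed) in √10 steps. After 5 days, cells were fixed and their nuclei stained in one step (final 0.05% Triton X-100, 1% formaldehyde, 1 ug/ml Hoechst), then counted on 4× images. Relative viability is the nuclei count in treated wells divided by that in vehicle wells. Values are medians of duplicate plates.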

Decitabine + Tozasertib = compound: Nc1ncn([C@H]2C[C@H](O)[C@@H](CO)O2)c(=O)n1 [Decitabine] + Cc1cc(Nc2cc(N3CCN(C)CC3)nc(Sc3ccc(NC(=O)C4CC4)cc3)n2)n[nH]1 [Tozasertib] (partner 0.1 µM)
In short: as §1

[2] = compound: O=C(C[C@H]1NCCC[C@@H]1O)Cn1cnc2cc(Br)c(Cl)cc2c1=O (racemic) [Halofuginone] + O=C(CCCCCCC(=O)Nc1ccccc1)NO [Vorinostat] (partner 1 µM)
In short: as §1

[3] = compound: O=C(C[C@H]1NCCC[C@@H]1O)Cn1cnc2cc(Br)c(Cl)cc2c1=O (racemic) [Halofuginone] + Nc1ncn([C@H]2C[C@H](O)[C@@H](CO)O2)c(=O)n1 [Decitabine] (partner 2 µM)
In short: as §1

Cell Line	relative viability ([1]; first compound 0.001 µM)	relative viability ([1]; first compound 0.003162 µM)	relative viability ([1]; first compound 0.01 µM)	relative viability ([1]; first compound 0.03162 µM)	relative viability ([1]; first compound 0.1 µM)	relative viability (Decitabine + Tozasertib; first compound 0.04 µM)	relative viability (Decitabine + Tozasertib; first compound 0.1265 µM)	relative viability (Decitabine + Tozasertib; first compound 0.4 µM)	relative viability (Decitabine + Tozasertib; first compound 4 µM)	relative viability ([2]; first compound 0.001 µM)	relative viability ([2]; first compound 0.003162 µM)	relative viability ([2]; first compound 0.01 µM)	relative viability ([2]; first compound 0.03162 µM)	relative viability ([2]; first compound 0.1 µM)	relative viability ([3]; first compound 0.001 µM)	relative viability ([3]; first compound 0.003162 µM)	relative viability ([3]; first compound 0.01 µM)	relative viability ([3]; first compound 0.03162 µM)	relative viability ([3]; first compound 0.1 µM)	relative viability (Decitabine + Tozasertib; first compound 1.265 µM)
201T	0.708	0.647	0.666	0.597	0.516	0.742	0.776	0.909	0.587	1.01	0.971	0.964	0.909	0.776	0.844	0.896	0.857	0.792	0.845	–
A549	0.569	0.547	0.53	0.347	0.0767	–	–	–	–	–	–	–	–	–	0.338	0.278	0.293	0.257	0.258	–
A-427	0.683	0.749	0.73	0.756	0.66	0.195	0.136	0.118	0.135	0.89	0.891	0.828	0.827	0.807	0.626	0.596	0.541	0.564	0.52	0.123
ABC-1	0.415	0.922	0.836	0.728	0.51	0.211	0.185	0.174	0.21	1.11	1.08	1.04	1.24	1.04	1.11	1.39	0.926	1.26	1.04	0.195
BEN	0.52	0.587	0.547	0.594	0.425	0.443	0.454	0.421	0.355	0.55	0.541	0.55	0.587	0.572	0.719	0.743	0.754	0.778	0.561	0.371
CAL-12T	0.691	0.277	–	0.468	0.323	0.292	0.268	–	0.219	0.876	0.897	0.746	0.651	0.445	–	–	–	–	–	0.21
COR-L23	0.954	0.963	0.801	0.6	0.156	0.134	0.158	0.158	0.128	0.602	0.295	0.493	0.301	0.106	0.518	0.511	0.421	0.465	0.217	0.123
COR-L 105	0.437	0.432	0.412	0.338	0.31	0.378	0.336	0.36	0.237	1.04	0.872	0.896	0.774	0.719	0.673	0.791	0.63	0.598	0.568	0.365
Calu-6	0.968	0.873	0.849	0.327	0.11	–	–	–	–	–	–	–	–	–	–	–	–	–	–	–
ChaGo-K-1	0.587	0.397	0.683	0.669	0.776	0.23	0.238	0.189	0.208	0.725	0.766	0.755	0.726	0.746	0.548	0.531	0.474	0.532	0.532	0.176
EBC-1	0.441	0.31	0.263	0.195	0.101	–	–	–	–	–	–	–	–	–	–	–	–	–	–	–
EKVX	0.442	0.442	0.443	0.469	0.354	0.283	0.266	0.247	0.148	0.787	0.729	0.729	0.693	0.572	0.317	0.313	0.281	0.354	0.276	0.166
EMC-BAC-2	0.491	0.55	0.489	0.54	0.46	0.274	0.266	0.27	0.271	0.592	0.491	0.447	0.334	0.14	0.989	1	0.917	0.874	0.409	0.251
EPLC-272H	0.324	0.306	0.338	0.352	0.325	–	0.307	0.0586	0.157	0.479	0.401	0.304	0.411	0.382	0.421	0.4	0.39	0.436	0.351	0.26
H3255	0.472	0.482	0.437	0.394	0.447	–	0.633	0.524	0.431	0.852	0.818	0.761	0.819	0.818	0.593	0.682	0.567	0.628	0.517	0.506
HARA	0.556	0.461	0.402	0.436	0.235	0.0975	0.0855	0.0556	0.0747	0.587	0.675	0.512	0.697	0.51	0.664	0.648	0.611	0.591	0.434	0.078
HCC-15	0.721	0.852	0.7	0.857	0.673	0.308	0.388	0.345	0.175	0.848	0.866	0.902	0.876	0.85	0.647	0.71	0.747	0.676	0.482	0.213
HCC-44	0.545	0.605	0.592	0.67	0.399	–	1.01	0.174	0.382	1.15	1.14	1.17	1.2	1.05	0.967	0.992	0.953	0.973	0.902	0.457
HCC-78	0.216	0.193	0.206	0.21	0.221	0.443	0.488	0.369	0.291	0.675	0.459	0.391	0.426	0.367	0.688	0.678	0.667	0.69	0.714	0.38
